Test results reported in BindingDB's records for doi:10.1016/j.bmcl.2006.01.105 (Wyeth Research, 2006).

Assay: Antiviral activity against Hepatitis C virus replicon in Huh7 cells

## CCCC1(C(=O)O)CCc2c1[nH]c1c(Cl)ccc(Cl)c21 (stereo unspecified) [5,8-dichloro-3-propyl-1,2,3,4-tetrahydrocyclopenta[b]indole-3-carboxylic acid]
  IC50: 27 µM
